From patent US20140242093A1, “METHODS AND COMPOSITIONS FOR MODULATING THE INNATE IMMUNE RESPONSE AND/OR MYOGENESIS IN A MAMMALIAN SUBJECT” (FRED HUTCHINSON CANCER RESEARCH CENTER, priority 2011, published 2014)

How the values were obtained:
[1] = system: cultured human skeletal muscle cells; details: cited from earlier work
Human myoblasts = assay: Expression array of the innate immune response to lentiviral infection versus uninfected cells; format: cell-based
Experimental: RNA was harvested from the lenti-viral infected cells and uninfected control cells at 24 hours after infection.

DUX4-fl: full-length DUX4 protein (SEQ ID NO:110), expressed from lentiviral or pCS2 vectors or in vitro translated
toxicity of forced over-expression [1]: toxic to cells, inducing apoptotic cell death
induction of viral RNA sensors LGP2 (DHX58), IFIH1 (MDA5), DDX58 (RIG-1) (Human myoblasts): suppresses the induction of the three primary sensors of viral RNA
number of the 341 genes induced within 50% of the level of induction by lenti-GFP (Human myoblasts): 24 genes
share of lentivirus-induced genes whose induction is suppressed (Human myoblasts; 317 out of 341): 93%
DEFB103A and DEFB103B transcripts (Human myoblasts; expression array): activated
CCL2 expression ratio vs GFP (.fc) (Human myoblasts; gene CCL2 NM_002982.3, vs lenti-GFP, 24 hours after infection): −2.68 log2 fold change
CCL2 expression ratio vs NoLenti (.fc) (Human myoblasts; gene CCL2 NM_002982.3, vs uninfected, 24 hours after infection): 0.01 log2 fold change
CCL5 expression ratio vs GFP (.fc) (Human myoblasts; gene CCL5 NM_002985.2, vs lenti-GFP, 24 hours after infection): −2.53 log2 fold change
CCL5 expression ratio vs NoLenti (.fc) (Human myoblasts; gene CCL5 NM_002985.2, vs uninfected, 24 hours after infection): 0.22 log2 fold change
CXCL1 expression ratio vs GFP (.fc) (Human myoblasts; gene CXCL1 NM_001511.1, vs lenti-GFP, 24 hours after infection): −3.52 log2 fold change
CXCL1 expression ratio vs NoLenti (.fc) (Human myoblasts; gene CXCL1 NM_001511.1, vs uninfected, 24 hours after infection): −0.04 log2 fold change
CXCL2 expression ratio vs GFP (.fc) (Human myoblasts; gene CXCL2 NM_002089.3, vs lenti-GFP, 24 hours after infection): −1.34 log2 fold change
CXCL2 expression ratio vs NoLenti (.fc) (Human myoblasts; gene CXCL2 NM_002089.3, vs uninfected, 24 hours after infection): −0.04 log2 fold change
CXCL5 expression ratio vs GFP (.fc) (Human myoblasts; gene CXCL5 NM_002994.3, vs lenti-GFP, 24 hours after infection): −2.47 log2 fold change
CXCL5 expression ratio vs NoLenti (.fc) (Human myoblasts; gene CXCL5 NM_002994.3, vs uninfected, 24 hours after infection): −0.37 log2 fold change
CXCL6 expression ratio vs GFP (.fc) (Human myoblasts; gene CXCL6 NM_002993.2, vs lenti-GFP, 24 hours after infection): −1.99 log2 fold change
CXCL6 expression ratio vs NoLenti (.fc) (Human myoblasts; gene CXCL6 NM_002993.2, vs uninfected, 24 hours after infection): −0.10 log2 fold change
DDX58 expression ratio vs GFP (.fc) (Human myoblasts; gene DDX58 NM_014314.3, vs lenti-GFP, 24 hours after infection): −2.47 log2 fold change
DDX58 expression ratio vs NoLenti (.fc) (Human myoblasts; gene DDX58 NM_014314.3, vs uninfected, 24 hours after infection): −0.18 log2 fold change
DHX58 (LGP2) expression ratio vs GFP (.fc) (Human myoblasts; gene DHX58 NM_024119.2, vs lenti-GFP, 24 hours after infection): −2.84 log2 fold change
DHX58 (LGP2) expression ratio vs NoLenti (.fc) (Human myoblasts; gene DHX58 NM_024119.2, vs uninfected, 24 hours after infection): −0.17 log2 fold change
IFI6 expression ratio vs GFP (.fc) (Human myoblasts; gene IFI6 NM_022872.2, vs lenti-GFP, 24 hours after infection): −4.24 log2 fold change
IFI6 expression ratio vs NoLenti (.fc) (Human myoblasts; gene IFI6 NM_022872.2, vs uninfected, 24 hours after infection): 0.82 log2 fold change
IFI16 expression ratio vs GFP (.fc) (Human myoblasts; gene IFI16 NM_005531.1, vs lenti-GFP, 24 hours after infection): −2.01 log2 fold change
IFI16 expression ratio vs NoLenti (.fc) (Human myoblasts; gene IFI16 NM_005531.1, vs uninfected, 24 hours after infection): −0.14 log2 fold change
IFI27 expression ratio vs GFP (.fc) (Human myoblasts; gene IFI27 NM_005532.3, vs lenti-GFP, 24 hours after infection): −6.53 log2 fold change
IFI27 expression ratio vs NoLenti (.fc) (Human myoblasts; gene IFI27 NM_005532.3, vs uninfected, 24 hours after infection): 0.92 log2 fold change
IFI35 expression ratio vs GFP (.fc) (Human myoblasts; gene IFI35 NM_005533.2, vs lenti-GFP, 24 hours after infection): −3.85 log2 fold change
IFI35 expression ratio vs NoLenti (.fc) (Human myoblasts; gene IFI35 NM_005533.2, vs uninfected, 24 hours after infection): −0.32 log2 fold change
IFI44L expression ratio vs GFP (.fc) (Human myoblasts; gene IFI44L NM_006820.1, vs lenti-GFP, 24 hours after infection): −5.12 log2 fold change
IFI44L expression ratio vs NoLenti (.fc) (Human myoblasts; gene IFI44L NM_006820.1, vs uninfected, 24 hours after infection): 0.74 log2 fold change
IFI44 expression ratio vs GFP (.fc) (Human myoblasts; gene IFI44 NM_006417.3, vs lenti-GFP, 24 hours after infection): −2.42 log2 fold change
IFI44 expression ratio vs NoLenti (.fc) (Human myoblasts; gene IFI44 NM_006417.3, vs uninfected, 24 hours after infection): 0.90 log2 fold change
IFIH1 (MDA5) expression ratio vs GFP (.fc) (Human myoblasts; gene IFIH1 NM_022168.2, vs lenti-GFP, 24 hours after infection): −3.70 log2 fold change
IFIH1 (MDA5) expression ratio vs NoLenti (.fc) (Human myoblasts; gene IFIH1 NM_022168.2, vs uninfected, 24 hours after infection): 0.25 log2 fold change
IFIT1 expression ratio vs GFP (.fc) (Human myoblasts; gene IFIT1 NM_001548.3, vs lenti-GFP, 24 hours after infection): −4.38 log2 fold change
IFIT1 expression ratio vs NoLenti (.fc) (Human myoblasts; gene IFIT1 NM_001548.3, vs uninfected, 24 hours after infection): 0.43 log2 fold change
IFIT3 expression ratio vs GFP (.fc) (Human myoblasts; gene IFIT3 NM_001549.2, vs lenti-GFP, 24 hours after infection): −3.86 log2 fold change
IFIT3 expression ratio vs NoLenti (.fc) (Human myoblasts; gene IFIT3 NM_001549.2, vs uninfected, 24 hours after infection): 0.04 log2 fold change
IFIT5 expression ratio vs GFP (.fc) (Human myoblasts; gene IFIT5 NM_012420.1, vs lenti-GFP, 24 hours after infection): −1.65 log2 fold change
IFIT5 expression ratio vs NoLenti (.fc) (Human myoblasts; gene IFIT5 NM_012420.1, vs uninfected, 24 hours after infection): −0.36 log2 fold change
IFITM1 expression ratio vs GFP (.fc) (Human myoblasts; gene IFITM1 NM_003641.3, vs lenti-GFP, 24 hours after infection): −6.12 log2 fold change
IFITM1 expression ratio vs NoLenti (.fc) (Human myoblasts; gene IFITM1 NM_003641.3, vs uninfected, 24 hours after infection): 0.73 log2 fold change
IFITM2 expression ratio vs GFP (.fc) (Human myoblasts; gene IFITM2 NM_006435.2, vs lenti-GFP, 24 hours after infection): −1.71 log2 fold change
IFITM2 expression ratio vs NoLenti (.fc) (Human myoblasts; gene IFITM2 NM_006435.2, vs uninfected, 24 hours after infection): −0.46 log2 fold change
